Reference: ChEMBL document CHEMBL1201862, “PubChem BioAssay data set” (2004)
Activity calls are given as the source filed them.

Columns and labels:
[1] = inhibitors of intracellular T. cruzi replication, confirmation, NIH3T3 host cells, beta-gal luminescence (AID 2044); assay type: functional, cell-based;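 also: intracellular parasites grown in NIH/3T3 mouse fibroblasts as host cells; luminescent beta-galactosidase reporter signal from transgenic T. cruzi replicating inside host cells; inhibitors lower the luminescence signal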
[2] = NIH-3T3 fibroblast cytotoxicity, dose response, cytotoxicity control, cell-based, fluorescence, Alamar Blue, secondary assay (AID 2327); assay type: functional;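 also: NIH-3T3 mouse fibroblasts cultured with fluconazole at 8 µg/mL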
[3] = HeLa cell cytotoxicity, dose response, cytotoxicity control for MgcRacGAP inhibitor project (AID 624300); assay type: functional
[4] = tested on: Streptococcus; assay: Group A Streptococcus viability loss, dose response, counter-screen for streptokinase expression inhibitor project, luminescence, BacTiterGlo (AID 1915); assay type: functional, organism-based;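 also: potency for reduction of bacterial viability or growth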
[5] = target: T1, Streptokinase A (Streptococcus pyogenes serotype M1, UniProt P10520); assay: S. pyogenes streptokinase expression inhibitors, potency, dose response, plasminogen activation absorbance, OD405 (AID 1914); assay type: functional, Streptococcus pyogenes M1 GAS;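 also: secreted streptokinase activity via plasminogen activation per viability signal from cell pellet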
T1 sequence (P10520 whole entry): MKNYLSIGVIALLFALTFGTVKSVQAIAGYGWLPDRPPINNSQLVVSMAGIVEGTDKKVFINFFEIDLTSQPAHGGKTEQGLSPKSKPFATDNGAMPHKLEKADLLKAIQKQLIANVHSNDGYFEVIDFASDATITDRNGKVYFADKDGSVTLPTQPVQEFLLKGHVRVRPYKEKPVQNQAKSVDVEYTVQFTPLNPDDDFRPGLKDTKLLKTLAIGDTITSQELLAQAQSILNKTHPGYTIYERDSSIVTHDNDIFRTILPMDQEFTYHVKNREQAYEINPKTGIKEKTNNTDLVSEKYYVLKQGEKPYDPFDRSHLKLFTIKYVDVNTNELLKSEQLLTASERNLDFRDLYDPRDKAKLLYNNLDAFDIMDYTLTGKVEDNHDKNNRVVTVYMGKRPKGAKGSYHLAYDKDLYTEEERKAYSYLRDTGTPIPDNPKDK

[6] = target: Nonstructural protein 1 (Influenza A virus, UniProt Q194T2); assay type: functional, Influenza A virus (A/California/07/2009(H1N1))
Chain of Nonstructural protein 1 (Q194T2 whole entry): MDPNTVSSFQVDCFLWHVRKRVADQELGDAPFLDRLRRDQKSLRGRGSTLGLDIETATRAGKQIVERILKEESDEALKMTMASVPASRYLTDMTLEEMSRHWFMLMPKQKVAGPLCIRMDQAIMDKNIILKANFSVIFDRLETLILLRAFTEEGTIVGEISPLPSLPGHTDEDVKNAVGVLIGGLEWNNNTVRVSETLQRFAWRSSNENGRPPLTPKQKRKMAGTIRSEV

[7] = target: T2, Rac GTPase-activating protein 1 (Homo sapiens, UniProt Q9H0H5); assay: MgcRacGAP GTPase-activating activity inhibitors, confirmation, biochemical, ADP Hunter fluorescence, primary and confirmatory (AID 624330); assay type: functional
T2 sequence (Q9H0H5 whole entry): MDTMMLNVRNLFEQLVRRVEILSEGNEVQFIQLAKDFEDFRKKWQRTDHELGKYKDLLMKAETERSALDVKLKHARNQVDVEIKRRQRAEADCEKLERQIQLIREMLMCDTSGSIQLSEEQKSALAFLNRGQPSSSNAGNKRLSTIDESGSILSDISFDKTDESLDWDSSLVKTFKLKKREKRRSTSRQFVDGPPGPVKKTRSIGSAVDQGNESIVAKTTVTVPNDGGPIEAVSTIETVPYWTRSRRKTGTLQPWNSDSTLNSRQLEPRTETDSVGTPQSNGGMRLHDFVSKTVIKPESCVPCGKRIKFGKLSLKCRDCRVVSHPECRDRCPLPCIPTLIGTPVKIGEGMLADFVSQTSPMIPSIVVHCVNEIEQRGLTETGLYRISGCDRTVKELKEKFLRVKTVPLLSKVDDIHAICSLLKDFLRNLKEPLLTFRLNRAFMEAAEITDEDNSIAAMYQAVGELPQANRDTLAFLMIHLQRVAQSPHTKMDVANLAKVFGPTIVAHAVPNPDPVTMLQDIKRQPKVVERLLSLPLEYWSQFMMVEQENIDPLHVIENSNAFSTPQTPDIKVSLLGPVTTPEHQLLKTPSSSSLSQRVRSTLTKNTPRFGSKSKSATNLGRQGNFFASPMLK

[8] = tested on: Streptococcus sp. 'group A'; assay: growth inhibition of control SK(-) GAS strain, dose response, counter-screen for streptokinase expression inhibitor project, luminescence, kanamycin, BacTiterGlo, confirmation (AID 1900); assay type: functional, organism-based
[9] = cells
[10] = target: T3, Leucine aminopeptidase (Plasmodium falciparum 3D7, UniProt Q8IL11); assay: P. falciparum M17LAP inhibitors, primary screen, biochemical, fluorogenic H-Leu-NHMec substrate, 1536-well (AID 1619); assay type: functional
T3 sequence (Q8IL11 whole entry): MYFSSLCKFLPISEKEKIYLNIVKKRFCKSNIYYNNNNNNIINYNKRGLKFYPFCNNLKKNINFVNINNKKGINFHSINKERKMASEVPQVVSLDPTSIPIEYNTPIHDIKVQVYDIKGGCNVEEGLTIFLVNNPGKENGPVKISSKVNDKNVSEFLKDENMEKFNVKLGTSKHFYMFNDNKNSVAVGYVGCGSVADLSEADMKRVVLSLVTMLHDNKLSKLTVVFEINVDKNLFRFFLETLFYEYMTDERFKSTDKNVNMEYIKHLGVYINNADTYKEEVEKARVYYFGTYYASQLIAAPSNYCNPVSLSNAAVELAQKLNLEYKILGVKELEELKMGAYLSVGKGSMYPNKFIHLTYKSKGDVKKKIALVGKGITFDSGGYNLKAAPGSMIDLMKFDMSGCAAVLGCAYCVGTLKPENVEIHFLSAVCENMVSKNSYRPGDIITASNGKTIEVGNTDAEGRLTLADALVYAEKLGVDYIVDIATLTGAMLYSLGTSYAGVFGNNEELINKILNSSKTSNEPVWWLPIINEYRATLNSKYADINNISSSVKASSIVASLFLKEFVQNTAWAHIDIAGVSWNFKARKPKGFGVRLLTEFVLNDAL

[11] = C. albicans growth with fluconazole, confirmation, fluorescence, retest (AID 2467); assay type: functional, cell-based
[12] = cytotoxicity toward NIH3T3 fibroblasts, dose response, counter-screen, cell-based, ATP luminescence, mouse fibroblasts (AID 2010); assay type: functional;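 also: cells exposed to compound for about 90 hours before reading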
[13] = target: Photoreceptor-specific nuclear receptor (Homo sapiens, UniProt Q9Y5X4); assay type: functional, cell-based;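 also: CHO-S cells with Gal4-NCOR and VP16-NR2E3 two-hybrid luciferase reporter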
Chain of Photoreceptor-specific nuclear receptor (Q9Y5X4 whole entry, the tested form may be a part): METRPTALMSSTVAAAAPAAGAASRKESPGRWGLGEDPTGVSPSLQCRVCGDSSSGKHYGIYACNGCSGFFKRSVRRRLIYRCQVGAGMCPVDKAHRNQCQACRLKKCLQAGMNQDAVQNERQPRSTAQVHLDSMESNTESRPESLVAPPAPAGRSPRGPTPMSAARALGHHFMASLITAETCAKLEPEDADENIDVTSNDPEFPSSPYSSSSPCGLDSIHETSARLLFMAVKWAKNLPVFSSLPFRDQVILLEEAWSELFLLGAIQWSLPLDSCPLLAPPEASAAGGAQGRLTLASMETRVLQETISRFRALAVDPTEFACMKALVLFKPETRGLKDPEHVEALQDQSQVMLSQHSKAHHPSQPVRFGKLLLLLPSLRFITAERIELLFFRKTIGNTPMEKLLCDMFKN

[14] = target: T4, Sentrin-specific protease 8 (Homo sapiens, UniProt Q96LD8); assay type: functional
T4 sequence (Q96LD8 whole entry): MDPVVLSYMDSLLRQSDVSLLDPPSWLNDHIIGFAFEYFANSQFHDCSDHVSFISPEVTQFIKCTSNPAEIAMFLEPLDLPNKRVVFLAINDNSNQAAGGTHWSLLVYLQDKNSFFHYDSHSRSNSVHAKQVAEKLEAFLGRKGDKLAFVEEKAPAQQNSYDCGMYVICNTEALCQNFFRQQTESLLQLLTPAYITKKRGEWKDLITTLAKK

[15] = target: T4, Sentrin-specific protease 8; assay type: functional; remark: listed apart in the source
[16] = target: T5, Protein RecA (Mycobacterium tuberculosis, UniProt P9WHJ3); assay: Fluorescence Cell-Free Homogeneous Dose Retest to Identify Inhibitors of RecA-Intein Splicing Activity. [Related pubchem assays (depositor defined):AID2097, AID2223, AID489010, AID492950]; assay type: functional
T5 sequence (P9WHJ3 whole entry): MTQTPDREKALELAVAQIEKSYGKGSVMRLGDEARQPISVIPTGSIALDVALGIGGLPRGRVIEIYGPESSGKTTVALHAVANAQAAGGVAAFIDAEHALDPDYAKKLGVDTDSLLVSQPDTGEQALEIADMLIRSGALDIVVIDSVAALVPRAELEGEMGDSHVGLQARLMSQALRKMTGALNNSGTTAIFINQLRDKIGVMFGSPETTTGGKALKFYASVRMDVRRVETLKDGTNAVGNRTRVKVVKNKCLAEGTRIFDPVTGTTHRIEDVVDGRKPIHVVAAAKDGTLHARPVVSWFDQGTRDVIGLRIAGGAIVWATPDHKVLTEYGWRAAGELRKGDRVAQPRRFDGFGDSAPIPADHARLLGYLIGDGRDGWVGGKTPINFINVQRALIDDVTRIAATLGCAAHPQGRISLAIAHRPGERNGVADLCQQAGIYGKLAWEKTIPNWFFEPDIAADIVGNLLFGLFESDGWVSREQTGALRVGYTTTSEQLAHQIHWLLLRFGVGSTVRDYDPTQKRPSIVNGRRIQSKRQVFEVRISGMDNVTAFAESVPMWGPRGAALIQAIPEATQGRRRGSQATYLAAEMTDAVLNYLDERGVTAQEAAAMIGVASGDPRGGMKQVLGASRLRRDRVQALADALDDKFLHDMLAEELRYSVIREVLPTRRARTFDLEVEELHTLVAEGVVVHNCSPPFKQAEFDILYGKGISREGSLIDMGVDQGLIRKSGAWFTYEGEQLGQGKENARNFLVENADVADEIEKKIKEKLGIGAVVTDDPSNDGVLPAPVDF

[17] = target: T6, Replicative DNA helicase DnaB (Mycobacterium tuberculosis, UniProt P9WMR3); assay: DnaB intein splicing inhibitors, dose response, biochemical, cell-free fluorescence (AID 449749); assay type: functional
T6 sequence (P9WMR3 whole entry): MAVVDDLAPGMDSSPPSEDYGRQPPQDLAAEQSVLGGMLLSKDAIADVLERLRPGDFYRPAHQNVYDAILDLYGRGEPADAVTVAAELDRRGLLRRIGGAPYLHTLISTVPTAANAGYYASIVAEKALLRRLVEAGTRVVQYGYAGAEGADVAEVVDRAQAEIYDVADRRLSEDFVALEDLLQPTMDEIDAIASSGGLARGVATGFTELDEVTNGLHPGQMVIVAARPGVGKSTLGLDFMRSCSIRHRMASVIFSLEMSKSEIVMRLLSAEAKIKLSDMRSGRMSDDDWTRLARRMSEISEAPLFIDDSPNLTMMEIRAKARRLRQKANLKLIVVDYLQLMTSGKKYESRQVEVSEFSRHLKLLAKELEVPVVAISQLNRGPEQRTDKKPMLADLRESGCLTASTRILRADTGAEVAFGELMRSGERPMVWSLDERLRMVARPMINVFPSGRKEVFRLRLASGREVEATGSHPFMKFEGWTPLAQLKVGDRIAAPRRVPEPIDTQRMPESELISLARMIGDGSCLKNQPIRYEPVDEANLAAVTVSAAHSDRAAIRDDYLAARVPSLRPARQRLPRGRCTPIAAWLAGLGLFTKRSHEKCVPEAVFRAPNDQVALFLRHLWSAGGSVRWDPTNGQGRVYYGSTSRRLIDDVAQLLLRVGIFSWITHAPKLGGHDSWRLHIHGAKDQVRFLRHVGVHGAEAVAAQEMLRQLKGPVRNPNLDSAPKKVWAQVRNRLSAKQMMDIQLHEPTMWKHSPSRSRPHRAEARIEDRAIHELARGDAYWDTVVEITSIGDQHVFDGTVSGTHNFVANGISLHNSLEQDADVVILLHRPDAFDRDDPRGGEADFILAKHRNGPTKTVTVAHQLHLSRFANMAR

[18] = target: T7, Probable nicotinate-nucleotide adenylyltransferase (Staphylococcus aureus (strain N315), UniProt P65502); assay type: functional, Staphylococcus aureus subsp. aureus N315; details: read-out: IC50_Mean;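 as to IC50 Mean: confirmatory dose-response retesting of NadD inhibitor hits first found in an ultra-high-throughput screen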
T7 sequence (P65502 whole entry): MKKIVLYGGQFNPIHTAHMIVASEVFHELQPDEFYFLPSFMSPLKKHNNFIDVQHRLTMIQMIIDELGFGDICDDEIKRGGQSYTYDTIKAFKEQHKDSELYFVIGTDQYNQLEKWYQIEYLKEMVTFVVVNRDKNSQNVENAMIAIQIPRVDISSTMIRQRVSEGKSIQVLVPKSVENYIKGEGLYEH

[19] = target: T7, Probable nicotinate-nucleotide adenylyltransferase; assay type: functional, Staphylococcus aureus subsp. aureus N315
[20] = target: ADP-ribosylation factor GTPase-activating protein 1 (Rattus norvegicus, UniProt Q62848); assay: Fluorescence polarization-based biochemical high throughput dose response screening assay to identify inhibitors of ADP-ribosylation factor GTPase activating protein 1 (ARFGAP1).; assay type: functional
Chain of ADP-ribosylation factor GTPase-activating protein 1 (Q62848 whole entry): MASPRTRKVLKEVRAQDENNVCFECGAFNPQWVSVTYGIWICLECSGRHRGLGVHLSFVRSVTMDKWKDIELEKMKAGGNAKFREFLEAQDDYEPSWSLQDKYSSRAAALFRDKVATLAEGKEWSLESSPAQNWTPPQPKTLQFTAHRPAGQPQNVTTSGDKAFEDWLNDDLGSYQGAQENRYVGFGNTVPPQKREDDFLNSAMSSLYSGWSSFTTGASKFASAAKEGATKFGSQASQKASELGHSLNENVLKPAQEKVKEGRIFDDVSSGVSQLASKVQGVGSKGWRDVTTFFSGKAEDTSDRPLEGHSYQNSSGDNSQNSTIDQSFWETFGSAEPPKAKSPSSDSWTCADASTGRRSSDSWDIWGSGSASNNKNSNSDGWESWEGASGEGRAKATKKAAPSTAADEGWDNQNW

[21] = NIH/3T3 fibroblast cytotoxicity, dose response, cytotoxicity control for T. cruzi growth inhibitor project, cell-based, cherry-pick samples, set 2 (AID 651817); assay type: functional; details: NIH3T3
[22] = target: T8, Small ubiquitin-related modifier 1 (Homo sapiens, UniProt P63165); assay: inhibitors of SUMO1 partner interactions, dose response, biochemical, FRET (AID 624383); assay type: functional; details: read-out: IC50_Mean
T8 sequence (P63165 whole entry): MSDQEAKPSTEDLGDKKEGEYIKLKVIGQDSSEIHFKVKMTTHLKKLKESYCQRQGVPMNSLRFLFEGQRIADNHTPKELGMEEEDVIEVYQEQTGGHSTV

[23] = target: T9, Small ubiquitin-related modifier 2 (Homo sapiens, UniProt P61956); assay: SUMO2–SIM peptide binding inhibitors, dose response, selectivity assay for SUMO1 interaction inhibitor project, biochemical, fluorescence polarization, uHTS hits (AID 624385); assay type: functional; details: read-out: IC50_Mean
T9 sequence (P61956 whole entry): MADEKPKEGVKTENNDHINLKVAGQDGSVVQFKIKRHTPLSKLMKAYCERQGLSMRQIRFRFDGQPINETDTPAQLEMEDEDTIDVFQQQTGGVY

[24] = half-maximal inhibitory concentration for glucagon-like peptide-1 release, STC-1 cell line, dose-response (AID 1117345); assay type: functional, cell-based
[25] = target: T8, Small ubiquitin-related modifier 1; assay: inhibitors of SUMO1 peptide binding, dose response, biochemical, fluorescence polarization, uHTS hits (AID 624382); assay type: functional; details: read-out: IC50_Mean
[26] = target: T9, Small ubiquitin-related modifier 2; assay: inhibitors of SUMO2 protein-protein interaction, dose response, selectivity assay for SUMO1 interaction inhibitor project, biochemical, FRET, human SUMO2, uHTS hits (AID 624384); assay type: functional; details: read-out: IC50_Mean
[27] = Glucagon-like peptide 1 release potency, NCI-H716 cell line, dose-response, half-maximal inhibitory concentration (AID 1117344); assay type: functional, cell-based

SMILES: CN(C)c1ccc(/C=C/c2ccc3ccccc3[n+]2C)cc1
- EC50 [1]: < 0.1 µM (active)
- EC50 [2]: > 150 µM (inactive)
- CC50 [3]: 28.9 µM (active)
- EC50 [4]: 11.5 µM (active)
- EC50 [5]: > 150 µM (not active)
- IC50 [6]: 14.3 µM (active)
- IC50 [7]: 46.8 µM (active)
- EC50 [8]: 6.7 µM (active)
- EC50 [9]: < 0.004 µM (active)
- IC50 [10]: 88.4 µM (active)
- EC50 [11]: 0.035 µM (active)
- EC50 [12]: 18.5 µM (active)
- IC50 [13]: 19.2 µM (inactive)

SMILES: O=C1C2=[N+]([O-])C3CCCCC3[N+]([O-])=C2c2ccccc21 (configuration not stated)
- IC50 [14]: 2.98 µM (active)
- IC50 [15]: 9.46 µM (active)
- EC50 [16]: 9.54 µM (active)
- AC50 [17]: 6.38 µM (active)

SMILES: N#Cc1c(SCc2c(Cl)cccc2Cl)nc(N)[nH]c1=S
- IC50 [18]: 32.9 µM (active)
- IC50 [19]: 13 µM (active)

SMILES: CCC(=O)Nc1ccc(NC(=O)CSc2nnnn2-c2ccc3c(c2)OCCO3)cc1
- IC50 [20]: 40.7 µM (inactive)

SMILES: C[C@@H]1CN([C@H](C)CO)C(=O)c2cccc(NC(=O)c3ccncc3)c2O[C@H]1CN(C)Cc1ccc(-c2ccccc2)cc1
- AC50 [21]: 42 µM (inactive)

SMILES: [O-][S+](c1cc(Cl)cc(Cl)c1O)c1cc(Cl)cc(Cl)c1O [BITHIONOLOXIDE]
- IC50 [22]: 9.66 µM (active)
- IC50 [23]: 3.55 µM (active)
- IC50 [24]: > 40 µM (inactive)
- IC50 [25]: 0.876 µM (active)
- IC50 [26]: 43.3 µM (inactive)
- IC50 [27]: 19.7 µM (inactive)
